Where a name gives a salt, the structure may show the parent alone.
target: T1, human V1a receptor (Homo sapiens, UniProt P37288); test: human V1a receptor binding study (3H-Vasopressin, SPA beads, HEK293 membranes); settings: not given
T1 construct: expressed in transfected cells; host or cells: HEK293 cells, transiently transfected; cell membranes prepared
Description: The human V1a receptor was cloned by RT-PCR from total human liver RNA. The coding sequence was subcloned in an expression vector after sequencing to confirm the identity of the amplified sequence. […] Cell membranes were prepared from HEK293 cells transiently transfected with the expression vector and grown in 20 liter fermenters with the following protocol.
50 g of cells are resuspended in 30 ml freshly prepared ice cold Lysis buffer (50 mM HEPES, 1 mM EDTA, 10 mM magnesium dichloride adjusted to pH=7.4+complete cocktail of protease inhibitor (Roche Diagnostics)). Homogenized with Polytron for 1 min and sonicated on ice for 2×2 minutes at 80% intensity (Vibracell sonicator). The preparation is centrifuged 20 min at 500 g at 4° C., the pellet is discarded and the supernatant centrifuged 1 hour at 43,000 g at 4° C. (19,000 rpm). The pellet is resuspended in 12.5 ml Lysis buffer+12.5 ml Sucrose 20% and homogenized using a Polytron for 1-2 min. The protein concentration is determined by the Bradford method and aliquots are stored at −80° C. until use. For binding studies 60 mg Yttrium silicate SPA beads (Amersham) are mixed with an aliquot of membrane in binding buffer (50 mM Tris, 120 mM sodium chloride, 5 mM potassium chloride, 2 mM Calcium dichloride, 10 mM magnesium dichloride) for 15 minutes with mixing. 50 μl of bead/membrane mixture is then added to each well of a 96 well plate, followed by 50 μl of 4 nM 3H-Vasopressin (American Radiolabeled Chemicals). For total binding measurement 100 μl of binding buffer are added to the respective wells, for non-specific binding 100 μl of 8.4 mM cold vasopressin and for compound testing 100 μl of a serial dilution of each compound in 2% dimethyl sulfoxide. The plate is incubated 1 h at room temperature, centrifuged 1 min at 1000 g and counted on a Packard Top-Count. Non-specific binding counts are subtracted from each well and data is normalized to the maximum specific binding set at 100%. To calculate an IC 50 the curve is fitted using a non-linear regression model (XLfit) and the Ki is calculated using the Cheng-Prussoff equation.

T1 sequence (P37288 whole entry): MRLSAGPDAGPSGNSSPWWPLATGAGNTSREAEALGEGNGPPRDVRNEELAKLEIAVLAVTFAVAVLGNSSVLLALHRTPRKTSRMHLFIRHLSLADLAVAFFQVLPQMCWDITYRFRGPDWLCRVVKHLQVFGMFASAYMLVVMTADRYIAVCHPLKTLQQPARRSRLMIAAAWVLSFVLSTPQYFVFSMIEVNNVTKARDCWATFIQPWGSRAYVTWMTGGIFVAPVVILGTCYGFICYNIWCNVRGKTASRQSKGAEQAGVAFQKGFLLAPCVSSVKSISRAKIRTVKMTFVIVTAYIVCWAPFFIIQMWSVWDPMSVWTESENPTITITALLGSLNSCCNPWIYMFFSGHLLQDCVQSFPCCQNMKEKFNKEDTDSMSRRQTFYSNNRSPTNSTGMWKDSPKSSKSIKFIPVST

SMILES | Ki [nM]
CC(C)(C)OC(=O)N1Cc2cc(Cl)ccc2-n2c(nnc2[C@H]2CC[C@H](OC3CCC3)CC2)C1 [Example 30, trans-8-Chloro-1-(4-cyclobutoxy-cyclohexyl)-4H,6H-2,3,5,10b-tetraaza-benzo[e]azulene-5-carboxylic acid tert-butyl ester] | 2.82
CC(C)(C)OC(=O)N1Cc2cc(Cl)ccc2-n2c(nnc2[C@H]2CC[C@@H](OC3CCC3)CC2)C1 [Example 33, cis-8-Chloro-1-(4-cyclobutoxy-cyclohexyl)-4H,6H-2,3,5,10b-tetraaza-benzo[e]azulene-5-carboxylic acid tert-butyl ester] | 7.59
CC(C)(C)OC(=O)N1Cc2cc(Cl)ccc2-n2c(nnc2[C@H]2CC[C@H](OC3CCCCC3)CC2)C1 [Example 39, trans-8-Chloro-1-(4-cyclohexyloxy-cyclohexyl)-4H,6H-2,3,5,10b-tetraaza-benzoazulene-5-carboxylic acid tert-butyl ester] | 6.46
CC(C)(C)OC(=O)N1Cc2cc(Cl)ccc2-n2c(nnc2[C@H]2CC[C@@H](OC3CCCCC3)CC2)C1 [Example 42, cis-8-Chloro-1-(4-cyclohexyloxy-cyclohexyl)-4H,6H-2,3,5,10b-tetraaza-benzoazulene-5-carboxylic acid tert-butyl ester] | 17.8

same assay, conditions: membranes of HEK293 cells transiently transfected with human V1a receptor; 3H-Vasopressin; Ki calculated using the Cheng-Prussoff equation; read-out: pKi (hV1a) (converted)

SMILES | Ki [nM]
CC(C)O[C@H]1CC[C@H](c2nnc3n2-c2ccc(Cl)cc2CN(C)C3)CC1 [Example 10, trans-8-Chloro-1-(4-isopropoxy-cyclohexyl)-5-methyl-5,6-dihydro-4H-2,3,5,10b-tetraaza-benzo[e]azulene] | 2.82
CC(C)O[C@H]1CC[C@H](c2nnc3n2-c2ccc(Cl)cc2CN(S(C)(=O)=O)C3)CC1 [Example 11, trans-8-Chloro-1-(4-isopropoxy-cyclohexyl)-5-methanesulfonyl-5,6-dihydro-4H-2,3,5,10b-tetraaza-benzoazulene] | 1.1
CC(C)O[C@H]1CC[C@H](c2nnc3n2-c2ccc(Cl)cc2CN(CCO)C3)CC1 [Example 12, trans-2-[8-Chloro-1-(4-isopropoxy-cyclohexyl)-4H,6H-2,3,5,10b-tetraaza-benzoazulen-5-yl]-ethanol] | 2.29
CC(C)O[C@H]1CC[C@H](c2nnc3n2-c2ccc(Cl)cc2CN(C(C)C)C3)CC1 [Example 13, trans-8-Chloro-1-(4-isopropoxy-cyclohexyl)-5-isopropyl-5,6-dihydro-4H-2,3,5,10b-tetraaza-benzoazulene] | 1.51
CC(C)O[C@H]1CC[C@H](c2nnc3n2-c2ccc(Cl)cc2CN(S(=O)(=O)N(C)C)C3)CC1 [Example 14, trans-8-Chloro-1-(4-isopropoxy-cyclohexyl)-4H,6H-2,3,5,10b-tetraaza-benzoazulene-5-sulfonic acid dimethylamide] | 1
CC(C)O[C@H]1CC[C@H](c2nnc3n2-c2ccc(Cl)cc2CN(Cc2ccccn2)C3)CC1 [Example 15, trans-8-Chloro-1-(4-isopropoxy-cyclohexyl)-5-pyridin-2-ylmethyl-5,6-dihydro-4H-2,3,5,10b-tetraaza-benzoazulene] | 1.41
CC(=O)OCC(=O)N1Cc2cc(Cl)ccc2-n2c(nnc2[C@H]2CC[C@H](OC(C)C)CC2)C1 [Example 16, trans-Acetic acid 2-[8-chloro-1-(4-isopropoxy-cyclohexyl)-4H,6H-2,3,5,10b-tetraaza-benzoazulen-5-yl]-2-oxo-ethyl ester] | 3.47
CC(C)O[C@H]1CC[C@H](c2nnc3n2-c2ccc(Cl)cc2CN(C(=O)CO)C3)CC1 [Example 17, trans-1-[8-Chloro-1-(4-isopropoxy-cyclohexyl)-4H,6H-2,3,5,10b-tetraaza-benzoazulen-5-yl]-2-hydroxy-ethanone] | 3.47
CC(=O)N1Cc2cc(Cl)ccc2-n2c(nnc2[C@H]2CC[C@H](OC(C)C)CC2)C1 [Example 18, trans-1-[8-Chloro-1-(4-isopropoxy-cyclohexyl)-4H,6H-2,3,5,10b-tetraaza-benzoazulen-5-yl]-ethanone] | 2.51
CC(C)O[C@H]1CC[C@H](c2nnc3n2-c2ccc(F)cc2CN(C(=O)OC(C)(C)C)C3)CC1 [Example 19, trans-8-Fluoro-1-(4-isopropoxy-cyclohexyl)-4H,6H-2,3,5,10b-tetraaza-benzo[e]azulene-5-carboxylic acid tert-butyl ester] | 3.8
CC(C)O[C@H]1CC[C@H](c2nnc3n2-c2ccc(F)cc2CNC3)CC1 [Example 20, trans-8-Fluoro-1-(4-isopropoxy-cyclohexyl)-5,6-dihydro-4H-2,3,5,10b-tetraaza-benzo[e]azulene hydrochloride] | 251
CC(C)O[C@H]1CC[C@H](c2nnc3n2-c2ccc(F)cc2CN(C)C3)CC1 [Example 21, trans-8-Fluoro-1-(4-isopropoxy-cyclohexyl)-5-methyl-5,6-dihydro-4H-2,3,5,10b-tetraaza-benzo[e]azulene] | 29.5
CC(C)O[C@H]1CC[C@@H](c2nnc3n2-c2ccc(Cl)cc2CN(C(=O)OC(C)(C)C)C3)CC1 [Example 22, cis-8-Chloro-1-(4-isopropoxy-cyclohexyl)-4H,6H-2,3,5,10b-tetraaza-benzo[e]azulene-5-carboxylic acid tert-butyl ester] | 8.91
CC(C)O[C@H]1CC[C@@H](c2nnc3n2-c2ccc(Cl)cc2CNC3)CC1 [Example 23, cis-8-Chloro-1-(4-isopropoxy-cyclohexyl)-5,6-dihydro-4H-2,3,5,10b-tetraaza-benzo[e]azulene hydrochloride] | 363
CC(C)O[C@H]1CC[C@@H](c2nnc3n2-c2ccc(Cl)cc2CN(C)C3)CC1 [Example 24, cis-8-Chloro-1-(4-isopropoxy-cyclohexyl)-5-methyl-5,6-dihydro-4H-2,3,5,10b-tetraaza-benzo[e]azulene] | 26.9
Clc1ccc2c(c1)CNCc1nnc([C@H]3CC[C@H](OC4CCC4)CC3)n1-2 [Example 31, trans-8-Chloro-1-(4-cyclobutoxy-cyclohexyl)-5,6-dihydro-4H-2,3,5,10b-tetraaza-benzo[e]azulene hydrochloride] | 10.7
CN1Cc2cc(Cl)ccc2-n2c(nnc2[C@H]2CC[C@H](OC3CCC3)CC2)C1 [Example 32, trans-8-Chloro-1-(4-cyclobutoxy-cyclohexyl)-5-methyl-5,6-dihydro-4H-2,3,5,10b-tetraaza-benzo[e]azulene] | 1.29
Clc1ccc2c(c1)CNCc1nnc([C@H]3CC[C@@H](OC4CCC4)CC3)n1-2 [Example 34, cis-8-Chloro-1-(4-cyclobutoxy-cyclohexyl)-5,6-dihydro-4H-2,3,5,10b-tetraaza-benzo[e]azulene hydrochloride] | 145
CN1Cc2cc(Cl)ccc2-n2c(nnc2[C@H]2CC[C@@H](OC3CCC3)CC2)C1 [Example 35, cis-8-Chloro-1-(4-cyclobutoxy-cyclohexyl)-5-methyl-5,6-dihydro-4H-2,3,5,10b-tetraaza-benzo[e]azulene] | 7.94
Clc1ccc2c(c1)CNCc1nnc([C@H]3CC[C@H](OC4CCCC4)CC3)n1-2 [Example 37, trans-8-Chloro-1-(4-cyclopentyloxy-cyclohexyl)-5,6-dihydro-4H-2,3,5,10b-tetraaza-benzo[e]azulene hydrochloride] | 3.47
CN1Cc2cc(Cl)ccc2-n2c(nnc2[C@H]2CC[C@H](OC3CCCC3)CC2)C1 [Example 38, trans-8-Chloro-1-(4-cyclopentyloxy-cyclohexyl)-5-methyl-5,6-dihydro-4H-2,3,5,10b-tetraaza-benzo[e]azulene] | 0.794
Clc1ccc2c(c1)CNCc1nnc([C@H]3CC[C@H](OC4CCCCC4)CC3)n1-2 [Example 40, trans-8-Chloro-1-(4-cyclohexyloxy-cyclohexyl)-5,6-dihydro-4H-2,3,5,10b-tetraaza-benzoazulene hydrochloride] | 34.7
CN1Cc2cc(Cl)ccc2-n2c(nnc2[C@H]2CC[C@H](OC3CCCCC3)CC2)C1 [Example 41, trans-8-Chloro-1-(4-cyclohexyloxy-cyclohexyl)-5-methyl-5,6-dihydro-4H-2,3,5,10b-tetraaza-benzoazulene] | 2.88
Clc1ccc2c(c1)CNCc1nnc([C@H]3CC[C@@H](OC4CCCCC4)CC3)n1-2 [Example 43, cis-8-Chloro-1-(4-cyclohexyloxy-cyclohexyl)-5,6-dihydro-4H-2,3,5,10b-tetraaza-benzoazulene hydrochloride] | 174
CN1Cc2cc(Cl)ccc2-n2c(nnc2[C@H]2CC[C@@H](OC3CCCCC3)CC2)C1 [Example 44, cis-8-Chloro-1-(4-cyclohexyloxy-cyclohexyl)-5-methyl-5,6-dihydro-4H-2,3,5,10b-tetraaza-benzoazulene] | 14.1
